The results in this text go back to ChEMBL document CHEMBL5226310, “Synthesis and Characterization of Novel Mono- and Bis-Guanyl Hydrazones as Potent and Selective ASIC1 Inhibitors Able to Reduce Brain Ischemic Insult” (J Med Chem, 2021).

The target in experiment [1] is T1, Acid-sensing ion channel 1 (Homo sapiens, UniProt P78348).
T1 sequence (P78348 whole entry): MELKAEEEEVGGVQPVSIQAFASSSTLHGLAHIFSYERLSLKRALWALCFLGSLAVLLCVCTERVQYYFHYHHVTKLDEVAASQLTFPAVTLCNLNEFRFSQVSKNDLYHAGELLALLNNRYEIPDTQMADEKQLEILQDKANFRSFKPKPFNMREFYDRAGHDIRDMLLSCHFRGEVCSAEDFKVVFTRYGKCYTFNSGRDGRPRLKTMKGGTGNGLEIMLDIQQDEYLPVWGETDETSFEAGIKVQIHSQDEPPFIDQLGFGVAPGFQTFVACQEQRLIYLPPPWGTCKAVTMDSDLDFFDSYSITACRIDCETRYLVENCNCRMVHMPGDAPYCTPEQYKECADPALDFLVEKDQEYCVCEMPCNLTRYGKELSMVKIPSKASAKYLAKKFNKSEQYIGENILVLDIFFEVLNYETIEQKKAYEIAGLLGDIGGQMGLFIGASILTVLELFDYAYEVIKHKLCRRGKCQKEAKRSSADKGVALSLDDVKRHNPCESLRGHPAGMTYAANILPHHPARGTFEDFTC
Description: Inhibition of human ASIC1a in HEK293 cells assessed as inward proton-gated current at pH 6.0 incubated with compound followed by PcTx1 addition by patch-clamp electrophysiology. The format is cell-based. For orientation: Patch clamp records ionic current or voltage across a cell membrane.

Experiment [2] deals with Cortical neurone. The experiment in a line: Neuroprotective activity in OGD/Rx-induced E16 Wistar rat Primary cortical neurons assessed as increase in cell viability at 1.9 uM incubated for 3 hrs during OGD followed by reoxygenation with compound re-addition measured after 21 hrs by MTT assay. Conditions: time 24.0 hrs. The format is functional, cell-based. Background: Tetrazolium assays rely on reduction of a dye to a coloured formazan, in cell work by metabolically active cells.

Experiment [3] has as its target T2, Acid-sensing ion channel 2 (Mus musculus) (UniProt Q925H0).
T2 sequence (whole entry): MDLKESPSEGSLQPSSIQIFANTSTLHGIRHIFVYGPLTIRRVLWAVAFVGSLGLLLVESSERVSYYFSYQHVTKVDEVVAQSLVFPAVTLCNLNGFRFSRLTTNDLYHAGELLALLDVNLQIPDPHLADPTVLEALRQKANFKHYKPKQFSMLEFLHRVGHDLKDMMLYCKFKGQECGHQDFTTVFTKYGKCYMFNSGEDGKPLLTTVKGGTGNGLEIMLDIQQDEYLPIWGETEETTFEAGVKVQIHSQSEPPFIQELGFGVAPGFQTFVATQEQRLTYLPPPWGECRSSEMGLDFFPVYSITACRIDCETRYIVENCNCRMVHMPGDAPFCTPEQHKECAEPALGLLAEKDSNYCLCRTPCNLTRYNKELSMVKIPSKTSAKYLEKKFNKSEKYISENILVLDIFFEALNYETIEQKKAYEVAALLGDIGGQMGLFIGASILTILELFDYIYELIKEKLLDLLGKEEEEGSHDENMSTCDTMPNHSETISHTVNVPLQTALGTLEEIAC
The experiment in a line: Inhibition of mouse ASIC2a expressed in genetically engineered-CHO-K1 cells at 10 uM preincubated for 10 mins at pH 7.4 followed by cell stimulation with proton injection at pH 6.5 by electro-chromic fluorescence voltage sensor-based assay relative to control.

For experiment [4], the system named is Cortical neurone. The experiment in a line: Neuroprotective activity in OGD/Rx-induced E16 Wistar rat Primary cortical neurons assessed as increase in cell viability at 3.14 uM incubated for 3 hrs during OGD followed by reoxygenation with compound re-addition measured after 21 hrs by MTT assay. It counts as functional, cell-based. The conditions noted are these: time 24.0 hrs.

The subject of experiment [5] is Cortical neurone. Description: Neuroprotective activity in OGD/Rx-induced E16 Wistar rat Primary cortical neurons assessed as increase in cell viability at 3.14 uM incubated for 3 hrs during OGD followed by compound removal and reoxygenation measured after 21 hrs by MTT assay. The format is functional, cell-based.
The target of experiment [6] is T3, Acid-sensing ion channel 1 (Mus musculus) (UniProt Q6NXK8).
T3 sequence (whole entry): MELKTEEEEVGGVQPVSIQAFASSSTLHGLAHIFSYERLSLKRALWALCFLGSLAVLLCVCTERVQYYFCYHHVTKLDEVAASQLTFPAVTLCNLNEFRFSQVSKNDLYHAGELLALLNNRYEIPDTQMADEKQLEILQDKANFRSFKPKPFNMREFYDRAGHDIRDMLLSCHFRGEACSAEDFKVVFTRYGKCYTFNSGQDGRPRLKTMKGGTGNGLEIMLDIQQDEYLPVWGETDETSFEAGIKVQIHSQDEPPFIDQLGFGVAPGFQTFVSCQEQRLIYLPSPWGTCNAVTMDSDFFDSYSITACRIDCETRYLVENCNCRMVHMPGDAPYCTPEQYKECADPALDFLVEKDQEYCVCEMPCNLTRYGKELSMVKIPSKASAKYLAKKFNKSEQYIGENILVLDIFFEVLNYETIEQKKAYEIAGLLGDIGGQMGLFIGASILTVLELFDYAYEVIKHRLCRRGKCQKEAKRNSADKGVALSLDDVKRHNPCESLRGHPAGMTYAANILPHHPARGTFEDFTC
The experiment in a line: Inhibition of mouse ASIC1a expressed in genetically engineered-CHO-K1 cells at 10 uM preincubated for 10 mins at pH 7.4 followed by cell stimulation with proton injection at pH 6.5 by electro-chromic fluorescence voltage sensor-based assay relative to control.

Experiment [7] concerns Cortical neurone. Description: Neuroprotective activity in OGD/Rx-induced E16 Wistar rat Primary cortical neurons assessed as increase in cell viability at 0.52 uM incubated for 3 hrs during OGD followed by reoxygenation with compound re-addition measured after 21 hrs by MTT assay. It counts as functional, cell-based. The conditions noted are these: time 24.0 hrs.
In experiment [8] the test system is Cortical neurone. Description: Neuroprotective activity in OGD/Rx-induced E16 Wistar rat Primary cortical neurons assessed as increase in cell viability at 2.59 uM incubated for 3 hrs during OGD followed by reoxygenation with compound re-addition measured after 21 hrs by MTT assay. The format is functional, cell-based.
Experiment [9] deals with Mus musculus. The experiment in a line: Neuroprotective activity in mouse model of middle cerebral artery occlusion-induced transient brain ischemia assessed as reduction in neurological deficits at 0.8 mg/kg, ip administered thrice measured after 24 hrs. It counts as functional, organism-based.
Experiment [10] has as its system Cortical neurone. Description: Neuroprotective activity in OGD/Rx-induced E16 Wistar rat Primary cortical neurons assessed as increase in cell viability at 0.38 uM incubated for 3 hrs during OGD followed by reoxygenation with compound re-addition measured after 21 hrs by MTT assay. It counts as functional, cell-based. The conditions noted are these: time 24.0 hrs.

Experiment [11] relates to Mus musculus. Description: Neuroprotective activity in mouse model of middle cerebral artery occlusion-induced transient brain ischemia assessed as decrease in ischemic volume at 0.8 mg/kg, ip administered thrice measured after 24 hrs (reference value: 58 +/- 2.6 %). The format is functional. Details: scale not given: the % may be the effect or the level left.
Experiment [12] relates to Cortical neurone. Description: Neuroprotective activity in OGD/Rx-induced E16 Wistar rat Primary cortical neurons assessed as increase in cell viability at 2.1 uM incubated for 3 hrs during OGD followed by reoxygenation with compound re-addition measured after 21 hrs by MTT assay. It counts as functional, cell-based. Conditions: time 24.0 hrs.
Experiment [13] relates to Cortical neurone. The experiment in a line: Neuroprotective activity in OGD/Rx-induced E16 Wistar rat Primary cortical neurons assessed as increase in cell viability incubated for 3 hrs during OGD followed by reoxygenation with compound re-addition measured after 21 hrs by MTT assay. The conditions noted are these: time 24.0 hrs. The format is functional, cell-based.
Experiment [14] relates to Mus musculus. The experiment in a line: Neuroprotective activity in mouse model of middle cerebral artery occlusion-induced transient brain ischemia assessed as decrease in ischemic volume at 0.6 mg/kg, ip administered thrice measured after 24 hrs (reference value: 58 +/- 2.6 %). Details: scale not given: the % may be the effect or the level left. It counts as functional.

For experiment [15], the system named is Cortical neurone. The experiment in a line: Neuroprotective activity in OGD/Rx-induced E16 Wistar rat Primary cortical neurons assessed as increase in cell viability at 2.1 uM incubated for 3 hrs during OGD followed by compound removal and reoxygenation measured after 21 hrs by MTT assay. The format is functional, cell-based.
For experiment [16], the system named is Cortical neurone. Description: Neuroprotective activity in OGD/Rx-induced E16 Wistar rat Primary cortical neurons assessed as increase in cell viability at 1.41 uM incubated for 3 hrs during OGD followed by reoxygenation with compound re-addition measured after 21 hrs by MTT assay. Conditions: time 24.0 hrs. The format is functional, cell-based.
Experiment [17] deals with Cortical neurone. Description: Neuroprotective activity in OGD/Rx-induced E16 Wistar rat Primary cortical neurons assessed as increase in cell viability at 1.4 uM incubated for 3 hrs during OGD followed by compound removal and reoxygenation measured after 21 hrs by MTT assay. The format is functional, cell-based.
The subject of experiment [18] is Cortical neurone. Description: Neuroprotective activity in OGD/Rx-induced E16 Wistar rat Primary cortical neurons assessed as increase in cell viability at 2.9 uM incubated for 3 hrs during OGD followed by reoxygenation with compound re-addition measured after 21 hrs by MTT assay. It counts as functional, cell-based. Conditions: time 24.0 hrs.
The subject of experiment [19] is Cortical neurone. The experiment in a line: Neuroprotective activity in OGD/Rx-induced E16 Wistar rat Primary cortical neurons assessed as increase in cell viability at 9.5 uM incubated for 3 hrs during OGD followed by reoxygenation with compound re-addition measured after 21 hrs by MTT assay. Conditions: time 24.0 hrs. It counts as functional, cell-based.
Experiment [20] deals with Cortical neurone. Description: Neuroprotective activity in OGD/Rx-induced E16 Wistar rat Primary cortical neurons assessed as increase in cell viability at 0.13 uM incubated for 3 hrs during OGD followed by reoxygenation with compound re-addition measured after 21 hrs by MTT assay. The format is functional, cell-based. The conditions noted are these: time 24.0 hrs.

Calls of active or inactive are those of the source. The rule behind the calls is not given here.

A word on the IC50: it is the concentration that inhibits the measured activity by half. A word on the inhibition: it is the relative decrease from the control value, in per cent. As to `COc1ccc(Cn2nc(-c3ccc(F)cc3)cc2-c2ccc(/C=N/NC(=N)N)cc2)cc1`, the IC50 in [1] was 1.99 µM. Also, the result in the experiment with Cortical neurone [2] was Active. Further, the inhibition in experiment [3] came out at 40.3%.

For `Cn1nc(-c2ccc(F)cc2)cc1-c1ccc(/C=N/NC(=N)N)cc1`, the IC50 in experiment [1] is 3.14 µM. For the same compound, the result in the experiment with Cortical neurone [4] and in the experiment on Cortical neurone [5] was Active. Further, the inhibition in [6] is 16.8%; in [3], 96.6%.

`COc1ccc(Cn2nc(-c3ccc(/C=N/NC(=N)N)cc3)cc2-c2ccc(/C=N/NC(=N)N)cc2)cc1`: the IC50 in experiment [1] was determined as 0.518 µM. Further, the outcome with Cortical neurone [7] was Active. Moreover, the inhibition in experiment [6] turned out to be 72.9%; in experiment [3], 69.7%.

In the case of `N=C(N)N/N=C/c1ccc(-c2cc(-c3ccc(F)cc3)n[nH]2)cc1`, in [1], the concentration for half-maximal inhibition (IC50) worked out at 2.59 µM. In the experiment with Cortical neurone [8], the result was Active. Also, the figures for the inhibition in experiment [6] and in [3] were 41.6% and 83.6%, respectively.

`Cl.Cl.N=C(N)N/N=C\c1ccc(-c2cc(-c3ccc(/C=N\NC(=N)N)cc3)[nH]n2)cc1`: the IC50 in [1] amounted to 0.729 µM. In addition, the result in the experiment on Mus musculus [9] and with Cortical neurone [10] was Active. Besides, the figures for the inhibition in experiment [6] and in experiment [3] were 9.09% and 61.3%, respectively. For the same compound, the Activity with Mus musculus [11] was 40.9%.

As for `N=C(N)N/N=C/c1ccc(-c2cc(-c3ccc(Br)cc3)n[nH]2)cc1`, the IC50 in experiment [1] worked out at 1.99 µM. Moreover, the outcome in the experiment on Cortical neurone [12] and in the experiment with Cortical neurone [15] was Active. For the same compound, the values for the Activity result with Cortical neurone [13] and in the experiment with Mus musculus [14] were “Dose-Dependent Effect” and 44%, respectively. For the same compound, the inhibition in experiment [6] came out at 24.6%; in [3] it was 86.2%.

In the case of `Cn1nc(-c2ccc(/C=N/NC(=N)N)cc2)cc1-c1ccc(/C=N/NC(=N)N)cc1`, in experiment [1], the IC50 came to 1.42 µM. Also, the inhibition came out at 33.1% in experiment [6] and 43.9% in experiment [3]. Moreover, the outcome with Cortical neurone [16] and in the experiment on Cortical neurone [17] was Active.

Take `CC(C)(C)c1ccc(-c2cccc(-c3ccc(/C=N/NC(=N)N)cc3)c2)cc1`: in [1], the 50% inhibitory concentration (IC50) was found to be 2.95 µM. Besides, the result in the experiment on Cortical neurone [18] was Active.

As to `N=C(N)N/N=C/c1ccc(-c2cc(-c3ccc(F)cc3)on2)cc1`, the 50% inhibitory concentration (IC50) in [1] stood at 9.54 µM. Further, the figures for the inhibition in [6] and in experiment [3] were 24.2% and 95.9%, respectively. For the same compound, the result with Cortical neurone [19] was Active.

Take `Br.Br.C(=N/NC1=NCCN1)/c1ccc(-c2cc(-c3ccc(/C=N/NC4=NCCN4)cc3)[nH]n2)cc1`: the outcome with Cortical neurone [20] and with Mus musculus [9] was Active. Further, the 50% inhibitory concentration (IC50) in [1] is 0.972 µM. Also, the values for the inhibition in experiment [6] and in experiment [3] were -3.26% and 50.6%, respectively. For the same compound, in the experiment on Mus musculus [11], the Activity was found to be 40.9%.
